For one data set, the target named is T1, Na—H exchange (Rattus norvegicus, UniProt P26431).
T1 construct: The blood was centrifuged at 3000 rpm for 5 seconds to obtain platelet rich plasma (PRP); from tissue; host or cells: platelets in platelet rich plasma from abdominal aortic blood of male Wistar rats
Description: Rat platelet swelling in sodium propionate solution (light transmittance of PRP), inhibition of Na—H exchange. In kind it is cell-based. The settings on record: test compound 10^−7 M, rat platelet rich plasma, value 1 minute after sodium propionate solution, 100% = difference between 1% DMSO and HOE-642 (10^−5M); for inhibition at 0.1 µM: 1 min, read-out: Inhibition Rate (%) [10^−7 M]. Here is the method: Male Wistar rats (350-450 g) were anesthetized with sodium pentobarbital (50 mg/kg, i.p.). Using a disposable syringe pre-filled with 1.5 ml of 3.8% citric acid solution, 8.5 ml of blood was collected from the abdominal aorta. The blood was centrifuged at 3000 rpm for 5 seconds to obtain platelet rich plasma (PRP). The number of platelets in the PRP was counted by an automatic hemocytometer (Sysmex 2500, TOA Medical Electronics). The PRP was diluted with physiological saline to make the concentration of 40×10^4 platelets per 1 μl. A platelet aggregometer (Hematoracer, Niko Bioscience) was used for measurement of the platelet swelling. 200 μl of the PRP was poured into a cuvette and 600 μl of sodium propionate solution (Na propionate 135, glucose 10, Hepes 20, CaCl2 1, MgCl2 1; Units: mM; pH6.7) was added while stirring at 37° C. The change in the light transmittance of PRP which was an indicator of the platelet swelling was recorded on a plotter. The test compound was added 3 minutes before addition of the sodium propionate solution. The test compounds were dissolved in dimethylsulfoxide (DMSO).

Molecules are shown by their SMILES.

T1 sequence (P26431 whole entry): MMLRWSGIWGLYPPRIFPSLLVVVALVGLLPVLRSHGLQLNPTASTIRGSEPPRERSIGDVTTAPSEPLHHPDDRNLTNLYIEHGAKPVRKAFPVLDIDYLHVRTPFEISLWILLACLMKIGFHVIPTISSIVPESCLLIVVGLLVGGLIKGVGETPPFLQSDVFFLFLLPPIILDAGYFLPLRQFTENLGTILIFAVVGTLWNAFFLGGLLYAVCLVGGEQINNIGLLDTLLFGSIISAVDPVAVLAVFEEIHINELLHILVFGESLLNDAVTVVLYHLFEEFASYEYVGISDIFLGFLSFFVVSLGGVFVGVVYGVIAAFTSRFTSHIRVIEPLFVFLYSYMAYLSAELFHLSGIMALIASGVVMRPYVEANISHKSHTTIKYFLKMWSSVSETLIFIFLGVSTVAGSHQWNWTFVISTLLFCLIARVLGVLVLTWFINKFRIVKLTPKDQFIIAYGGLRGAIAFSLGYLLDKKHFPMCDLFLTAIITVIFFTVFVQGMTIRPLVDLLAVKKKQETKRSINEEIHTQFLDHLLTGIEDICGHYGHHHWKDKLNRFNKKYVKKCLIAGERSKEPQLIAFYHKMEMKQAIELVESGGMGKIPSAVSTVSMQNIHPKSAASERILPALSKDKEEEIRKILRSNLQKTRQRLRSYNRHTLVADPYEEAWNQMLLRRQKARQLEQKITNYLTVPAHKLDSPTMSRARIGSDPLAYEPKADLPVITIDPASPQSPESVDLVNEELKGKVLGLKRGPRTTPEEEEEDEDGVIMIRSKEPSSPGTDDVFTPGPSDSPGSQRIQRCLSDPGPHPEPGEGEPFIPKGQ

On to `Cc1cnnc2c1C(=NNC(=N)N)CC(c1ccccc1Cl)C2.Cl` (stereo not drawn) [Compound 129, 7-(2-chlorophenyl)-5-guanidinoimino-4-methyl-5,6,7,8-tetrahydrocinnoline hydrochloride], for which the melting point is 241 to 243 °C. Besides, the inhibition at 0.1 µM at Na—H exchange turned out to be 80%.

As to `Cc1ccnc2c1C(=NNC(=N)N)CC(c1ccccc1Cl)C2.Cl` (stereo not drawn) [Compound 61, 7-(2-chlorophenyl)-5-guanidinoimino-4-methyl-5,6,7,8-tetrahydroquinoline hydrochloride], the melting point is 204 °C (dec.). In addition, the “Inhibition Rate (%) [10^−7 M]” value at Na—H exchange is given as 78%.

Turning to `Cc1coc2c1C(=NNC(=N)N)CC(c1cccs1)C2.Cl` (stereo not drawn) [Compound 48, 4-guanidinoimino-3-methyl-6-(2-thienyl)-4,5,6,7-tetrahydrobenzofuran hydrochloride], the melting point is 285 °C (dec.). On Na—H exchange, the inhibition at 0.1 µM was determined as 70%.

These data come from patent US6350749B1, “Aminoguanidine hydrazone derivatives, process for producing the same and drugs thereof” (Takeda Chemical Industries, Ltd., priority 1998, dated 2002).
